Here are results for one compound from ChEMBL document CHEMBL3872220, “Amphiphilic xanthones as a potent chemical entity of anti-mycobacterial agents with membrane-targeting properties” (Eur J Med Chem, 2016).

The test system of one test is Mycobacterium tuberculosis variant bovis. The experiment in a line: Antimycobacterial activity against Mycobacterium bovis BCG ATCC 35734 assessed as ATP leakage by measuring extracellular ATP at 2 times MIC measured at 9 hrs post dose by luciferase reporter gene assay. The class given is functional, Mycobacterium tuberculosis variant bovis BCG. In general terms: Reporter assays use an easily measured gene product as a stand-in for the process of interest.
Consider `CCN(CC)CCCCOc1cc2oc3cc(OCCCCN(CC)CC)c(OC)c(CC=C(C)C)c3c(=O)c2c(O)c1CC=C(C)C`, for which the Activity is recorded as 92.8%.

Another test has the same test system. The experiment in a line: Antimycobacterial activity against Mycobacterium bovis BCG ATCC 35734 assessed as ATP leakage by measuring intracellular ATP at 4 times MIC measured at 24 hrs post dose by luciferase reporter gene assay. In kind it is functional, Mycobacterium tuberculosis variant bovis BCG.
`CCN(CC)CCCCOc1cc2oc3cc(OCCCCN(CC)CC)c(OC)c(CC=C(C)C)c3c(=O)c2c(O)c1CC=C(C)C`: the Activity stood at 6.8%.

The test system is the same in a further test. Kind of test: Antimycobacterial activity against Mycobacterium bovis BCG ATCC 35734 assessed as ATP leakage by measuring intracellular ATP at 4 times MIC measured immediatey after addition of compounds by luciferase reporter gene assay. In kind it is functional, Mycobacterium tuberculosis variant bovis BCG.
`CCN(CC)CCCCOc1cc2oc3cc(OCCCCN(CC)CC)c(OC)c(CC=C(C)C)c3c(=O)c2c(O)c1CC=C(C)C`: the Activity worked out at 89.5%.

Another test has the same test system. Kind of test: Antimycobacterial activity against Mycobacterium bovis BCG ATCC 35734 assessed as ATP leakage by measuring extracellular ATP at 1 MIC measured at 1 hr post dose by luciferase reporter gene assay. The class given is functional, Mycobacterium tuberculosis variant bovis BCG.
As for `CCN(CC)CCCCOc1cc2oc3cc(OCCCCN(CC)CC)c(OC)c(CC=C(C)C)c3c(=O)c2c(O)c1CC=C(C)C`, the Activity was 24.9%.

The test system is the same in a further test. The experiment in a line: Antimycobacterial activity against Mycobacterium bovis BCG ATCC 35734 assessed as ATP leakage by measuring intracellular ATP at 4 times MIC measured at 1 hr post dose by luciferase reporter gene assay. In kind it is functional, Mycobacterium tuberculosis variant bovis BCG.
Regarding `CCN(CC)CCCCOc1cc2oc3cc(OCCCCN(CC)CC)c(OC)c(CC=C(C)C)c3c(=O)c2c(O)c1CC=C(C)C`, the Activity was found to be 34%.

Another test shares this test system. Kind of test: Antimycobacterial activity against Mycobacterium bovis BCG ATCC 35734 assessed as ATP leakage by measuring intracellular ATP at 1 MIC measured at 1 hr post dose by luciferase reporter gene assay. In kind it is functional, Mycobacterium tuberculosis variant bovis BCG.
For the compound `CCN(CC)CCCCOc1cc2oc3cc(OCCCCN(CC)CC)c(OC)c(CC=C(C)C)c3c(=O)c2c(O)c1CC=C(C)C`, the Activity is reported as 75.1%.

For another test the test system is unchanged. The experiment in a line: Antimycobacterial activity against Mycobacterium bovis BCG ATCC 35734 assessed as ATP leakage by measuring intracellular ATP at 0.5 times MIC measured at 24 hrs post dose by luciferase reporter gene assay. In kind it is functional, Mycobacterium tuberculosis variant bovis BCG.
As for `CCN(CC)CCCCOc1cc2oc3cc(OCCCCN(CC)CC)c(OC)c(CC=C(C)C)c3c(=O)c2c(O)c1CC=C(C)C`, the Activity was determined as 65.3%.

For another test the test system is unchanged. The experiment in a line: Antimycobacterial activity against Mycobacterium bovis BCG ATCC 35734 assessed as ATP leakage by measuring intracellular ATP at 4 times MIC measured at 9 hrs post dose by luciferase reporter gene assay. In kind it is functional, Mycobacterium tuberculosis variant bovis BCG.
In the case of `CCN(CC)CCCCOc1cc2oc3cc(OCCCCN(CC)CC)c(OC)c(CC=C(C)C)c3c(=O)c2c(O)c1CC=C(C)C`, the Activity turned out to be 5.5%.

The test system is the same in a further test. Kind of test: Induction of membrane integrity impairment in Mycobacterium bovis BCG ATCC 35734 assessed as pH shift at 60 uM measured after 3 hrs by CMFDA dye based fluorescence spectroscopic method relative to control. The class given is functional, Mycobacterium tuberculosis variant bovis BCG.
`CCN(CC)CCCCOc1cc2oc3cc(OCCCCN(CC)CC)c(OC)c(CC=C(C)C)c3c(=O)c2c(O)c1CC=C(C)C`: the Activity is reported as 68.7%.

The test system is the same in a further test. The experiment in a line: Antimycobacterial activity against Mycobacterium bovis BCG ATCC 35734 assessed as ATP leakage by measuring extracellular ATP at 4 times MIC measured at 1 hr post dose by luciferase reporter gene assay. The class given is functional, Mycobacterium tuberculosis variant bovis BCG.
Regarding `CCN(CC)CCCCOc1cc2oc3cc(OCCCCN(CC)CC)c(OC)c(CC=C(C)C)c3c(=O)c2c(O)c1CC=C(C)C`, the Activity is 66%.

The next test shares this test system. Kind of test: Antimycobacterial activity against Mycobacterium bovis BCG ATCC 35734 assessed as ATP leakage by measuring extracellular ATP at 4 times MIC measured at 6 hrs post dose by luciferase reporter gene assay. In kind it is functional, Mycobacterium tuberculosis variant bovis BCG.
`CCN(CC)CCCCOc1cc2oc3cc(OCCCCN(CC)CC)c(OC)c(CC=C(C)C)c3c(=O)c2c(O)c1CC=C(C)C`: the Activity turned out to be 93.3%.

A further test has the same test system. The experiment in a line: Antimycobacterial activity against Mycobacterium bovis BCG ATCC 35734 assessed as ATP leakage by measuring extracellular ATP at 0.5 times MIC measured at 3 hrs post dose by luciferase reporter gene assay. In kind it is functional, Mycobacterium tuberculosis variant bovis BCG.
Take `CCN(CC)CCCCOc1cc2oc3cc(OCCCCN(CC)CC)c(OC)c(CC=C(C)C)c3c(=O)c2c(O)c1CC=C(C)C`: the Activity was found to be 27.4%.

The test system is the same in a further test. The experiment in a line: Antimycobacterial activity against Mycobacterium bovis BCG ATCC 35734 assessed as ATP leakage by measuring intracellular ATP at 0.5 times MIC measured at 9 hrs post dose by luciferase reporter gene assay. In kind it is functional, Mycobacterium tuberculosis variant bovis BCG.
As to `CCN(CC)CCCCOc1cc2oc3cc(OCCCCN(CC)CC)c(OC)c(CC=C(C)C)c3c(=O)c2c(O)c1CC=C(C)C`, the Activity is on record as 52.8%.

The test system is the same in the next test. Kind of test: Antimycobacterial activity against Mycobacterium bovis BCG ATCC 35734 assessed as ATP leakage by measuring extracellular ATP at 1 MIC measured at 3 hrs post dose by luciferase reporter gene assay. In kind it is functional, Mycobacterium tuberculosis variant bovis BCG.
`CCN(CC)CCCCOc1cc2oc3cc(OCCCCN(CC)CC)c(OC)c(CC=C(C)C)c3c(=O)c2c(O)c1CC=C(C)C`: the Activity amounted to 66.1%.

Another test shares this test system. Kind of test: Antimycobacterial activity against Mycobacterium bovis BCG ATCC 35734 assessed as ATP leakage by measuring intracellular ATP at 2 times MIC measured at 6 hrs post dose by luciferase reporter gene assay. In kind it is functional, Mycobacterium tuberculosis variant bovis BCG.
`CCN(CC)CCCCOc1cc2oc3cc(OCCCCN(CC)CC)c(OC)c(CC=C(C)C)c3c(=O)c2c(O)c1CC=C(C)C`: the Activity is 8.1%.

The next test has the same test system. The experiment in a line: Antimycobacterial activity against Mycobacterium bovis BCG ATCC 35734 assessed as ATP leakage by measuring intracellular ATP at 2 times MIC measured at 1 hr post dose by luciferase reporter gene assay. In kind it is functional, Mycobacterium tuberculosis variant bovis BCG.
Take `CCN(CC)CCCCOc1cc2oc3cc(OCCCCN(CC)CC)c(OC)c(CC=C(C)C)c3c(=O)c2c(O)c1CC=C(C)C`: the Activity worked out at 57.6%.
